Results reported in PMC12592502, “Unraveling the mechanisms behind the enhanced efficacy of β-lactam-based sideromycins” (Communications Biology, 2025).

What was measured:
[1] = biological target: OXA-98 (Acinetobacter baumannii, UniProt D0C7W4); experiment: biochemical; parameters: species or system A. baumannii ATCC 19606
Procedure: (§1) Enzyme concentrations were 20 nM for AmpC and SHV-1, and 50 nM for OXA-98. Quartz cuvette (FireflySci Inc., Northport, NY) with 1 cm length path and 2 mm inside width was used with an Ultrospec 2100 Pro (Biochrom, Harvard Bioscience Inc., USA) to acquire the kinetic measures. […] The following extinction coefficients (Δε) and wavelengths (λ) were used:
(§2) The steady-state parameters (Km and Kcat) were determined by plotting the initial velocity against substrate concentrations (Michaelis–Menten curve). The Kcat was measured using the Vmax (μM/sec) divided by the total enzyme concentration and the catalytic efficiency was further calculated (Kcat/Km). SHV-1 parameters were determined with three Michaelis–Menten curves of at least seven substrate concentrations, while OXA-98 and AmpC were duplicates of curves of at least seven substrate concentrations. […] Initial velocities were measured at room temperature (25 °C). The Vmax and Km were calculated using least squares fit regression in GraphPad version 10.2.2. Ki was measured using a derivative of IC50 with an adaptation of the Cheng–Prusoff equation[55]. […] The corrected Ki was calculated using this formula: Kicorrected=Ki(observed)/1+S/KmNCF

[2] = Antibiotic stability in 4-h bacterial culture supernatant; type: physicochemical; details: for additional decrease of residual concentration in used supernatants versus medium: 4-h supernatants with and without iron, after 3 h; for percentage of antibiotic degradation in [bacterial supernatant]: 3 h
Procedure: For analysis, the determined concentration in the supernatant was adjusted for the degradation of the molecules measured in the stability control tests for each time point. The final net antibiotic concentration in the medium was calculated at each time point by adding the concentration caused by degradation to the concentration of the test antibiotic measured in the assay tubes containing bacteria. […] A second control was added for the β-lactam LOR and CEF to verify the impact of metabolic waste on the stability of the molecules. The supernatant from the 4-h growth control without antibiotic was collected by filtration 0.2 µm. LOR and CEF were then added to the filtrated supernatant at 200 µM, and degradation was measured after 3 h.

[3] = biological target: SHV-1 (Klebsiella pneumoniae, UniProt P0AD64); experiment: biochemical
Procedure: as §1, §2

[4] = biological target: PBP5 (Escherichia coli, UniProt P0AEB2); experiment: Membrane PBP binding assay, competition with Bocillin FL; details: E. coli MC4100 membranes
Procedure: (§3) Membrane extracts containing PBPs were obtained as described above. Briefly, all species were grown in 1 L of TSB until the OD600 reached 0.9. The washed pellet was incubated with lysozyme (400 μg/mL), DNase (10 μg/mL) RNase(10 μg/mL) and anti-protease cocktail (200 mg/20 mL). Lysis was done with a French press (20,000 psi) and membrane protein were pelleted by ultracentrifugation steps (100,000 × g). The pellet was suspended in a minimal volume (300–500 μL) of KP 0.05 M buffer at pH 7. The protein concentration in the membrane preparations was determined with the Micro BCA TM Protein Assay Kit (Thermo Fisher Scientific, Rockford, IL) using bovine serum albumin as a standard.
(§4) The PBP binding assay was done as described previously[36],[56],[57]. For each antibiotic concentration tested, a quantity of 25 to 40 μg of membrane preparation was used as the source of PBPs, depending on the species. […]
(§5) To be able to visualize labeled PBPs after electrophoresis, gels were rinsed in water and fixed in a solution of 50% methanol and 7% acetic acid for 30 min. […] To obtain quantifiable data, the software Quantity One 1D analysis was used (version 4.6.6; Bio-Rad Laboratories, Richmond, CA). The volume (intensity × constant area) of each PBP was measured. […] The PBP profiles were confirmed, and the PBP numbering were determined using published data and individual molecular weights. […]

[5] = biological target: PBP5 (Klebsiella pneumoniae, UniProt A6T693); experiment: as above; details: K. pneumoniae ATCC 13883 membranes
Procedure: as §3, §4, §5

[6] = biological target: PBP1b (Acinetobacter baumannii, UniProt A0ABX6CHI7); experiment: as above; details: A. baumannii ATCC 19606 membranes
Procedure: as §3
(§6) The PBP binding assay was done as described previously[36],[56],[57]. For each antibiotic concentration tested, a quantity of 25 to 40 μg of membrane preparation was used as the source of PBPs, depending on the species. For the purified PaPBP3, 150 ng was used in the assay. First, increasing concentrations of the test antibiotic was added to the membrane or purified PaPBP3 preparations and incubated for 10 min at 30 °C. The reporter molecule Bocillin FL was then added at 12.5 μM for the membrane PBPs preparations and at 500 nM for the pure PaPBP3 samples for an additional 20 min at 30 °C. All reactions were stopped with the addition of the Laemmli-loading buffer (Bio-Rad) containing fresh β-mercaptoethanol (Sigma). All reactions were then heated at 100°C for 3 min before migration on SDS-polyacrylamide discontinuous gel system (7.5% stacking and 10% separating). Control samples without Bocillin FL were also included to highlight autofluorescent proteins that are not PBPs.
(§7) To be able to visualize labeled PBPs after electrophoresis, gels were rinsed in water and fixed in a solution of 50% methanol and 7% acetic acid for 30 min. The fluorescent images of gels were obtained with the Typhoon FLA 9500 instrument (GE-Healthcare Bio-Sciences Inc., Baie-d’Urfé, QC, CA) using a 473 nm excitation wavelength. To obtain quantifiable data, the software Quantity One 1D analysis was used (version 4.6.6; Bio-Rad Laboratories, Richmond, CA). The volume (intensity × constant area) of each PBP was measured. […] All IC50 data were obtained from at least two independent PBP binding assays using two different sets of compound concentrations using a linear regression. The PBP profiles were confirmed, and the PBP numbering were determined using published data and individual molecular weights. […] For example, amdinocillin (Sigma) was used for PBP2 identification. […] The IC50 for PBP 2 of P. aeruginosa was measured by including the SDS-PAGE comigrating autofluorescent protein in the background, as done previously.

[7] = biological target: PBP1b (Pseudomonas aeruginosa, UniProt G3XD31); experiment: as above; details: P. aeruginosa ATCC 27853 membranes
Procedure: as §3, §6, §7

[8] = biological target: PBP3 (Acinetobacter baumannii, UniProt A0ABX6CK25); experiment: as above; details: A. baumannii ATCC 19606 membranes
Procedure: as §3, §6, §7

[9] = biological target: PBP3 (Klebsiella pneumoniae, UniProt A0A0H3GN85); experiment: as above; details: K. pneumoniae ATCC 13883 membranes
Procedure: as §3, §6, §7

[10] = biological target: PBP4 (Klebsiella pneumoniae, UniProt A0ACD7U7I2); experiment: as above; details: K. pneumoniae ATCC 13883 membranes
Procedure: as §3, §6, §7

[11] = biological target: PBP5 (Pseudomonas aeruginosa, UniProt G3XD74); experiment: as above; details: P. aeruginosa ATCC 27853 membranes
Procedure: as §3, §6, §7

[12] = supernatant of 4-hour culture in ID-MHBCA

OXA-98, sequence (D0C7W4 entry or part of it): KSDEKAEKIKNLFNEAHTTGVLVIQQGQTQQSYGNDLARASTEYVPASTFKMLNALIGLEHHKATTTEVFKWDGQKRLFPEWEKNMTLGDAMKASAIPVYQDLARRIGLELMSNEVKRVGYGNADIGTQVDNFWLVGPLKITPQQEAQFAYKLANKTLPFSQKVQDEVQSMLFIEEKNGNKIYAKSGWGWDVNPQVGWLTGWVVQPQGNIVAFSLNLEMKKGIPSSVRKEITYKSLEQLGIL
SHV-1, sequence (P0AD64 23-286): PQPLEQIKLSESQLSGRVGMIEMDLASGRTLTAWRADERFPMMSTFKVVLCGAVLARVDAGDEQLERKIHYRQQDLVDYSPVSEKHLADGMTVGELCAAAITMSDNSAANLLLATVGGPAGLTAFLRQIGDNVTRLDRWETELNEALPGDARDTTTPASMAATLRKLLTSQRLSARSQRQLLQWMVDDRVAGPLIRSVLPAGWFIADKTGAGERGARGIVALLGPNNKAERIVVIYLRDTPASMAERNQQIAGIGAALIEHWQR
PBP5 (Escherichia coli, UniProt P0AEB2), sequence (P0AEB2 30-403): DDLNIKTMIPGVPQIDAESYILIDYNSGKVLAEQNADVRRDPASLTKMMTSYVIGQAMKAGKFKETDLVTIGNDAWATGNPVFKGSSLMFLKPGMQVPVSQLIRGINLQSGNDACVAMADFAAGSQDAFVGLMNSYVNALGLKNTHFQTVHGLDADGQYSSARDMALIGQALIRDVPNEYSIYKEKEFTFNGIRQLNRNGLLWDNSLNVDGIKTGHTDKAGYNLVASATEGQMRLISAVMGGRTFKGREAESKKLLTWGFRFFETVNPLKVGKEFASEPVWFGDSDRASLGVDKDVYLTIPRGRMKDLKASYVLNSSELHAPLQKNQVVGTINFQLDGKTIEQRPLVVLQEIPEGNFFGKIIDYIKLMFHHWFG
PBP1b (Pseudomonas aeruginosa, UniProt G3XD31), sequence (G3XD31 entry or part of it): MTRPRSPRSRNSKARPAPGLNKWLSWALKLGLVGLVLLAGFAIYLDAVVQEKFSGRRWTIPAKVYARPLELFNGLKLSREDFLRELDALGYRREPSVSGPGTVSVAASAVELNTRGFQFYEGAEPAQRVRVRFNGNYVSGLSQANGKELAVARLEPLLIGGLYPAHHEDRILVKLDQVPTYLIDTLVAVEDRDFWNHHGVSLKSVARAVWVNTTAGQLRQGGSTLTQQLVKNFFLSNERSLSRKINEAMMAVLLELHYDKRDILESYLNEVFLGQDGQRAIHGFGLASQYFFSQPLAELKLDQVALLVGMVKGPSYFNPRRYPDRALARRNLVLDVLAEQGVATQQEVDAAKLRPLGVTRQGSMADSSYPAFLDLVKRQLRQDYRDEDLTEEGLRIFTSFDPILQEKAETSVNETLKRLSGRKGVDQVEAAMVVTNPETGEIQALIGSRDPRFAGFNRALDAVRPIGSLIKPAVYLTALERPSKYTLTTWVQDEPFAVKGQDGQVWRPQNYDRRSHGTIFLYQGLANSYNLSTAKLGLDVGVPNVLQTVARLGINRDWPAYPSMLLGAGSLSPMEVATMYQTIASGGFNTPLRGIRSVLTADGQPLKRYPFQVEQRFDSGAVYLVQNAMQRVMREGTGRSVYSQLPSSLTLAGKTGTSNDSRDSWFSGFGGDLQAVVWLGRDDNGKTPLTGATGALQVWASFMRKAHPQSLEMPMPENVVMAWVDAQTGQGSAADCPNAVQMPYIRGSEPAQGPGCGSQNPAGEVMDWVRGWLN
PBP3 (Acinetobacter baumannii, UniProt A0ABX6CK25), sequence (A0ABX6CK25 1-610): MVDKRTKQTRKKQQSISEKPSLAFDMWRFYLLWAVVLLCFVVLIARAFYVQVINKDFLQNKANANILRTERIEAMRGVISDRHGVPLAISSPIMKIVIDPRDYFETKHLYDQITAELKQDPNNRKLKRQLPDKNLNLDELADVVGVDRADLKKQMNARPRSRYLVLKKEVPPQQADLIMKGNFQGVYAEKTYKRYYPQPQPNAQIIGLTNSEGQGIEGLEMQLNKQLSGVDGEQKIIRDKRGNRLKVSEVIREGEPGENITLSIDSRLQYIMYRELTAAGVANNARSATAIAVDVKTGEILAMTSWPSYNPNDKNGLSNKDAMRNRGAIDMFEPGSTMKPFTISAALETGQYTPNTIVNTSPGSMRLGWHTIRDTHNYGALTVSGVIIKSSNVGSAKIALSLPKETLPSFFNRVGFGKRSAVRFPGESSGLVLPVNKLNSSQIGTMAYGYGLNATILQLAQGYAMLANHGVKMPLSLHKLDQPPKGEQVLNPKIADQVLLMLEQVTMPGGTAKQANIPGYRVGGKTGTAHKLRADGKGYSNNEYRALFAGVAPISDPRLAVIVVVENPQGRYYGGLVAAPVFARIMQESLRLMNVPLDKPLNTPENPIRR
PBP5 (Pseudomonas aeruginosa, UniProt G3XD74), sequence (G3XD74 entry or part of it): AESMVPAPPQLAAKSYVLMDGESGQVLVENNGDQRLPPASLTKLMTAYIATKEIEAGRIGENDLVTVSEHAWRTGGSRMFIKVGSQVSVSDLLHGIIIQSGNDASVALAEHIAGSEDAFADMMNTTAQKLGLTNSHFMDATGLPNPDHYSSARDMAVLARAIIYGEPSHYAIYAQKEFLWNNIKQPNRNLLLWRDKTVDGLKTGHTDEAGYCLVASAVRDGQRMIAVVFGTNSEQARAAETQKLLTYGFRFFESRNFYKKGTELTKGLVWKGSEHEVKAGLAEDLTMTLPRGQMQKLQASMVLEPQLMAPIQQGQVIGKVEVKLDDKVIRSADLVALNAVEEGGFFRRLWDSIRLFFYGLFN
PBP5 (Klebsiella pneumoniae, UniProt A6T693), sequence (A6T693 entry or part of it): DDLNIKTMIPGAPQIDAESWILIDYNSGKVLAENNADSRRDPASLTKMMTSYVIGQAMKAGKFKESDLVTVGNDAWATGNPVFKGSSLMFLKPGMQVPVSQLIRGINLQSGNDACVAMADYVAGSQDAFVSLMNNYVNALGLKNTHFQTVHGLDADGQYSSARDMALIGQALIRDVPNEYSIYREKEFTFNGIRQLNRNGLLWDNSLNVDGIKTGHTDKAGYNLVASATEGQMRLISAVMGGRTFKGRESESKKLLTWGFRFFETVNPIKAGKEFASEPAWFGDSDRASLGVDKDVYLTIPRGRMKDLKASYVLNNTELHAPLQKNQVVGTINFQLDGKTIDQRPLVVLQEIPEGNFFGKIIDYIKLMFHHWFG
PBP3 (Klebsiella pneumoniae, UniProt A0A0H3GN85), sequence (A0A0H3GN85 entry or part of it): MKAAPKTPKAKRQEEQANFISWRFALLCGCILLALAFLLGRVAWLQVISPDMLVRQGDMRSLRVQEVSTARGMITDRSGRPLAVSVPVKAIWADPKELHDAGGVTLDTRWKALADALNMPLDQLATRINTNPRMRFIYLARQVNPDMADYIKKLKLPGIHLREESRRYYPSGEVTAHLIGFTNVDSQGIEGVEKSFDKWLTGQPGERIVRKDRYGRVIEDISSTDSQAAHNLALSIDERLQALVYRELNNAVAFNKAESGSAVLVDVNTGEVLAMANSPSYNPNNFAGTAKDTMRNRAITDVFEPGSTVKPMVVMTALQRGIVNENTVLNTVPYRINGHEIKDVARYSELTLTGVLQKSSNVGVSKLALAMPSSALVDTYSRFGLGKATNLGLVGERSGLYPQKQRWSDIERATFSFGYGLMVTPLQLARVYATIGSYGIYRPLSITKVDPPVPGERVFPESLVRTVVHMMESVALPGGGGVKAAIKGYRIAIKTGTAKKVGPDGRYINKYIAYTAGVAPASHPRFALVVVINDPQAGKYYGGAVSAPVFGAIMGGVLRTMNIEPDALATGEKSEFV

With `N[C@@H](C(=O)N[C@@H]1C(=O)N2C(C(=O)O)=C(Cl)CS[C@H]12)c1ccccc1` [CEF, cefaclor, reference compound] the “hydrolysis by OXA-98” value [1] was “No hydrolysis”, the “additional decrease of residual concentration in used supernatants versus medium” value [2] was no more than 12% and the “percentage of antibiotic degradation in [bacterial supernatant]” value (“percentage of antibiotic degradation” for short) [2, 12] was 32%. The “percentage of antibiotic degradation” value ([2]; supernatant of 4-hour culture in MHBCA) was 36%.

With `O=C(CN(CCCCNC(=O)c1cccc(O)c1O)C(=O)c1cccc(O)c1O)NC(C(=O)NC1C(=O)N2C(C(=O)O)=C(Cl)CCC12)c1ccccc1` (stereo not drawn) [BLOR, bis-catechol (azotochelin)-loracarbef] the “hydrolysis by OXA-98” value [1] was “No hydrolysis”.

In the case of `O=C(CCC(=O)N(CCCCNC(=O)c1cccc(O)c1O)CCCNC(=O)c1cccc(O)c1O)NCCCCCN(O)C(=O)CCCC(=O)NC(C(=O)NC1C(=O)N2C(C(=O)O)=C(Cl)CSC12)c1ccccc1` (stereo not drawn) [MCEF, mixed ligand bis-catechol-mono-hydroxamate-cefaclor], the “hydrolysis by OXA-98” value [1] is reported as “No hydrolysis”.

With `N[C@@H](C(=O)N[C@@H]1C(=O)N2C(C(=O)O)=C(Cl)CC[C@H]12)c1ccccc1` [LOR, loracarbef, reference compound] the “SHV-1 Kcat” value ([3]; n = 3) was 7.4 ± 0.5 s⁻¹, the Km ([3]; read-out: SHV-1 Km, Michaelis–Menten curves, n = 3, 25 °C) was 29 ± 9 µM and the “hydrolysis by OXA-98” value [1] was “No hydrolysis”. For the same compound, the “additional decrease of residual concentration in used supernatants versus medium” value [2] was no more than 12%, the “percentage of antibiotic degradation” value [2, 12] was 11% and the IC50 [4] was greater than 50 µM. It also gave an IC50 [5] greater than 50 µM, an IC50 [6] greater than 50 µM and an IC50 [7] of 1.8 ± 0.5 µM. The IC50 [8] was 7.8 ± 0.8 µM, the IC50 [9] was 4.1 ± 2.4 µM and the IC50 [10] was 1.03 ± 0.72 µM. It also gave an IC50 [11] greater than 50 µM.

`CC1(C)SC2C(NC(=O)C(NC(=O)CN(CCCCNC(=O)c3cccc(O)c3O)C(=O)c3cccc(O)c3O)c3ccccc3)C(=O)N2C1C(=O)O` (stereo not drawn) [BAMP, bis-catechol (azotochelin)-ampicillin] showed a Ki [3] of 184 ± 14 µM and a Ki [1] of 499 ± 4 µM.
